US6448058B1, “Methods for solid phase synthesis of mercapto compounds and derivatives, combinatorial libraries thereof and compositions obtained thereby” (Versicor, Inc., priority 1997, dated 2002)

Target: T1, peptide deformylase (Escherichia coli, UniProt P0A6K3)
T1 construct: made in house
Experiment: Peptide deformylase assay (continuous / discontinuous, f-ML-pNA substrate coupled with Aeromonas aminopeptidase)
Format: biochemical
Conditions: tested as a 1:1 mixture of diastereomers; read-out: IC50 against peptide deformylase
Procedure: The dipeptide substrate, N-formyl-methionylleucyl-p-nitroanilide (f-ML-pNA) is first deformylated by the peptide deformylase to give the corresponding dipeptide with a free amino terminus, which is a substrate for an aminopeptidase from Aeromonas proteolytica (Sigma Chemical Company). Sequential action by the aminopeptidase releases p-nitroaniline, a chromophore which can be detected spectrophotometrically. Peptide deformylase enzyme is prepared as described in Rajagopalan et al., Biochemistry (1997) 36:13910-13918. The dipeptide substrate is prepared as described in Wei and Pei (1997) Anal. Biochem. 250:29-34. Assays are carried out at 23° C. Assays are performed in polystyrene cuvettes which contain 50 mM potassium phosphate, pH 7.0, 100 μM ethylene glycol bis(b-aminoethyl ether)-N,N′-tetraacetic acid (EGTA), 0 to 200 μM peptide substrate, and 0.8 unit Aeromonas aminopeptidase. […] Reactions are monitored continuously at 405 nm in a Perkin-Elmer λ3 UV/VIS spectrophotometer, and the initial rates are calculated from the early part of the reaction progression curves (<60 s). […]
Discontinuous reactions are carried out in a buffer containing 50 mM potassium phosphate, pH 7.0, 100 μM EGTA, and 0 to 200 μM peptide substrate (total volume 250 or 500 μl). […] The amount of p-nitroaniline released is determined by measuring its absorbance at 405 nm. […]

T1 sequence (P0A6K3 whole entry): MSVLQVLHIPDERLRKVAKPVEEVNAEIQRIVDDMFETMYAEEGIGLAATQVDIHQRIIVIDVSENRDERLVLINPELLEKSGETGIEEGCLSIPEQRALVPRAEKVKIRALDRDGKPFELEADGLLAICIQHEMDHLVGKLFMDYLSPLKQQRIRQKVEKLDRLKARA

SMILES | IC50 [µM]
CCCCC(CS)C(=O)N[C@@H](CC(C)C)C(=O)Nc1ccc([N+](=O)[O-])cc1 (mixture of isomers) [Compound 110] | < 10
CCCCC(CS)C(=O)N[C@H](C(=O)N1CCC[C@H]1CO)C(C)C (mixture of isomers) [Compound 111] | < 10
